Measurements as given in patent US20250082763A1, “COMBINATION DRUG FOR TREATING TRIPLE-NEGATIVE BREAST CANCER” (HINOVA PHARMACEUTICALS INC., priority 2022, published 2025).
Like-named read-outs stand apart in the source and are kept apart here.

Columns and labels:
Assay type in all cases: cell-based
HCC1937 = experiment: Antiproliferation, CellTiter-Glo, 5 days, HCC1937; details: HCC1937, AR− TNBC
Protocol: (§1) For MDA-MB-453, MFM-223, SUM159PT, MDA-MB-468, and HCC1937, 4,000, 3,000, 1,000, 3,000, and 3,000 cells were plated per well in 96-well microplates (Corning Inc), respectively. Cells were treated with serial dilutions of tested compounds with the maximum working concentration of 10 μM. Cell survival was measured 5 days later using a CellTiter-Glo luminescent cell viability assay kit (Promega Corporation). Luminescence was recorded by FLUOstar Omega microplate reader (BMG Labtech). Half maximal inhibitory concentration (IC50) was determined with GraphPad Prism using baseline correction (by normalizing to dimethyl sulfoxide (DMSO) control)

MDA-MB-453 cells [1] = experiment: Inhibition of proliferation of MDA-MB-453 cells (CCK-8 or CTG, 7-10 days); details: for IC50: co-incubation 7-10 days, CCK-8 or CTG, read-out: IC50 values against MDA-MB-453 cells
Protocol: Triple negative breast cancer MDA-MB-453 cells in logarithmic growth stage were inoculated into a 96-well plate at a concentration of 4×10^3 cells/well, and then incubated in an incubator at 37° C., 5% CO2, and saturated humidity for 24 h or 48 h. To the negative control well, was added RPMI 1640 cell medium containing 10% fetal bovine serum in the same volume as the drug. After cultured for 24 h or 48 h, to the 96-well plate, were added AR PROTACs compounds 162, 177, 230, 259, 279, 281, 282, 325, 357, 400, ARV-110, ARV-766 and AR inhibitor HC-1119, respectively. The concentrations of compounds 177, 230, 259, 279, 281, 282, 325, 357, 400, ARV-110, and ARV-766 are 0 μM, 0.002 μM, 0.005 μM, 0.014 μM, 0.041 μM, 0.123 μM, 0.370 μM, 1.111 μM, 3.333 μM or 10 μM; while the concentrations of HC-1119 are 0 μM, 1.23 μM, 3.70 μM, 11.11 μM, 33.33 μM or 100 μM.
(§2) After addition of the drugs and co-incubation for 7-10 days, 10 μL of CCK-8 was added to each well, and then the plate was further cultured for 2 h. The absorbance value (OD) of each well was measured using a microplate reader at a wavelength of 450 nm. The survival rate was calculated using Prism software, the relative survival rate=(OD value of drug well/OD value of control well)×100%. Alternatively, 100 μL of medium was removed from each well, and then 50 μL of CTG was added. The plate was shaken in the dark for 2 min, allowed to stand for 10 min, and then measured using a microplate reader in Luminescence mode. Prism software was used to calculate the survival rate, the relative survival rate=(the RLU value of drug well/the RLU value of control well)×100%.

MDA-MB-453 cells [2] = experiment: Combination with PI3K inhibitor Alpelisib, proliferation of MDA-MB-453 cells, Combination Index; details: molar ratio to Alpelisib 1:27-9:1, 7 days
Protocol: (§3) Triple negative breast cancer MDA-MB-453 cells in logarithmic growth stage were inoculated into a 96-well plate at a concentration of 4×10^3 cells/well, and then incubated in an incubator at 37° C., 5% CO2, and saturated humidity for 24 h. To the negative control wells, were added RPMI 1640 cell culture medium containing 10% fetal bovine serum in the same volume as the drug. After cultured for 24 h, to the 96-well plate, were sequentially added AR PROTACs compounds 279, 281, 282, ARV-110, ARV-766 and PI3K inhibitor Alpelisib, respectively.
as §2, with “7” for “7-10”

SUM159PT = experiment: Antiproliferation, CellTiter-Glo, 5 days, SUM159PT; details: AR+ TNBC
Protocol: as §1, with “Cells” for “For MDA-MB-453, MFM-223, SUM159PT, MDA-MB-468, and HCC1937, 4,000, 3,000, 1,000, 3,000, and 3,000 cells were plated per well in 96-well microplates (Corning Inc), respectively. Cells”

MDA-MB-468 = experiment: Antiproliferation, CellTiter-Glo, 5 days, MDA-MB-468; details: MDA-MB-468, AR− TNBC
Protocol: as §1

MDA-MB-453 = experiment: Antiproliferation, CellTiter-Glo, 5 days, MDA-MB-453; details: MDA-MB-453, AR+ TNBC
Protocol: as §1

MFM-223 = experiment: Antiproliferation, CellTiter-Glo, 5 days, MFM-223; details: MFM-223, AR+ TNBC
Protocol: as §1

MDA-MB-453 cells [3] = experiment: Combination with PI3K inhibitor Idelalisib, proliferation of MDA-MB-453 cells, Combination Index; details: molar ratio to Idelalisib 1:270-1:3.333, 7-10 days
Protocol: as §3, with “Idelalisib,” for “Alpelisib,”
as §2, with “adding” for “addition of”, “co-incubating” for “co-incubation”

MDA-MB-453 cells [4] = experiment: Combination with chemotherapeutic drug Paclitaxel, proliferation of MDA-MB-453 cells, Combination Index; details: molar ratio to Paclitaxel 20:1-5000:1, 7 days
Protocol: as §3, with “ARV-110” for “ARV-110, ARV-766”, “chemotherapeutic drug Paclitaxel,” for “PI3K inhibitor Alpelisib,”
as §2, with “adding” for “addition of”, “co-incubating” for “co-incubation”, “7” for “7-10”

MDA-MB-453 cells [5] = experiment: Combination with PI3K inhibitor Duvelisib, proliferation of MDA-MB-453 cells, Combination Index; details: molar ratio to Duvelisib 1:30-1:1.111, 7-10 days
Protocol: as §3, with “ARV-110” for “ARV-110, ARV-766”, “Duvelisib,” for “Alpelisib,”
as §2, with “adding” for “addition of”, “co-incubating” for “co-incubation”

[6] = test system: AR+ TNBC cells (MDA-MB-453, SUM159PT and MFM-223) and AR- TNBC (MDA-MB-468 and HCC1937); experiment: Antiproliferation in AR positive and negative TNBC cells (summary over the cell line panel); details: MDA-MB-453, SUM159PT, MFM-223, MDA-MB-468, HCC1937
Protocol: as §1

With COc1cc(O[C@H]2C(C)(C)[C@H](NC(=O)c3ccc(N4CCC(CN5CCN(c6ccc(C(=O)N[C@H]7CCC(=O)NC7=O)c(F)c6)CC5)CC4)cc3)C2(C)C)ccc1C#N [ARV-766] the IC50 (HCC1937; Homo sapiens, 120 h) was over 10 µM, the IC50 (MDA-MB-453 cells [1]; Homo sapiens) was at most 2 µM and the “effect of the combination with Alpelisib on inhibiting proliferation (CI<1 = synergistic)” value (MDA-MB-453 cells [2]) was “synergistic effect”. It also gave an IC50 (SUM159PT; Homo sapiens, SUM-159-PT, 120 h) of 0.38 µM, an IC50 (MDA-MB-468; Homo sapiens, 120 h) of over 10 µM and an IC50 (MDA-MB-453; Homo sapiens, 120 h) of 1.1 µM. The IC50 (MFM-223; Homo sapiens, 120 h) was 5.4 µM and the “effect of the combination with Idelalisib on inhibiting proliferation (CI<1 = synergistic)” value (MDA-MB-453 cells [3]) was “synergistic effect”.
Work on N#Cc1ccc(O[C@H]2CC[C@H](NC(=O)c3ccc(N4CCC5(CCN(CC6CCN(c7cc8c(cc7F)C(=O)N(C7CCC(=O)NC7=O)C8=O)CC6)C5)C4)nn3)CC2)cc1Cl (stereo partly drawn) [Compound 162] yielded an IC50 (MDA-MB-453 cells [1]; Homo sapiens) of over 2 µM.
N#Cc1ccc(O[C@H]2CC[C@H](NC(=O)c3cnc(N4C[C@@H]5[C@@H](CN6CCN(c7ccc8c(c7)C(=O)N(C7CCC(=O)NC7=O)C8=O)CC6)[C@@H]5C4)cn3)CC2)cc1Cl (stereo partly drawn) [Compound 177] gave an IC50 (MDA-MB-453 cells [1]; Homo sapiens) of over 2 µM.
In the case of N#Cc1ccc(O[C@H]2CC[C@H](NC(=O)c3ccc(N4CCC(CN5CCC6(CC5)CN(c5ccc7c(c5)C(=O)N(C5CCC(=O)NC5=O)C7=O)C6)CC4)nn3)CC2)cc1Cl (stereo partly drawn) [Compound 230], the IC50 (MDA-MB-453 cells [1]; Homo sapiens) is reported as over 2 µM.
For N#Cc1ccc(O[C@H]2CC[C@H](NC(=O)c3ccc(N4CC5CN(CC6CCN(c7cc8c(cc7F)C(=O)N(C7CCC(=O)NC7=O)C8=O)CC6)CC5C4)nn3)CC2)cc1Cl (stereo partly drawn) [Compound 259], the IC50 (MDA-MB-453 cells [1]; Homo sapiens) was over 2 µM.
For N#Cc1ccc(O[C@H]2CC[C@H](NC(=O)c3ccc(N4CCC(N5CCC6(CC5)CN(c5ccc7c(c5)C(=O)N(C5CCC(=O)NC5=O)C7=O)C6)CC4)nn3)CC2)cc1Cl (stereo partly drawn) [Compound 281], the “effect of the combination with Paclitaxel on inhibiting proliferation (CI<1 = synergistic)” value (MDA-MB-453 cells [4]) was “synergistic effect”, the IC50 (MDA-MB-453 cells [1]; Homo sapiens) was at most 2 µM and the “effect of the combination with Alpelisib on inhibiting proliferation (CI<1 = synergistic)” value (MDA-MB-453 cells [2]) was “synergistic effect”. For the same compound, the “effect of the combination with Duvelisib on inhibiting proliferation (CI<1 = synergistic)” value (MDA-MB-453 cells [5]) was “synergistic effect” and the “effect of the combination with Idelalisib on inhibiting proliferation (CI<1 = synergistic)” value (MDA-MB-453 cells [3]) was “synergistic effect”.
For N#Cc1ccc(O[C@H]2CC[C@H](NC(=O)c3ccc(N4CC5(CCN(CC6CCN(c7ccc8c(c7)C(=O)N(C7CCC(=O)NC7=O)C8=O)CC6)CC5)C4)nn3)CC2)cc1Cl (stereo partly drawn) [Compound 282], the “effect of the combination with Paclitaxel on inhibiting proliferation (CI<1 = synergistic)” value (MDA-MB-453 cells [4]) was “synergistic effect”, the IC50 (MDA-MB-453 cells [1]; Homo sapiens) was at most 2 µM and the “effect of the combination with Alpelisib on inhibiting proliferation (CI<1 = synergistic)” value (MDA-MB-453 cells [2]) was “synergistic effect”. The “effect of the combination with Duvelisib on inhibiting proliferation (CI<1 = synergistic)” value (MDA-MB-453 cells [5]) was “synergistic effect” and the “effect of the combination with Idelalisib on inhibiting proliferation (CI<1 = synergistic)” value (MDA-MB-453 cells [3]) was “synergistic effect”.
CC1(C)[C@H](Oc2ccc(C#N)c(Cl)c2)C(C)(C)[C@H]1N1Cc2nc(C#C[C@H]3CC[C@H](N4CCN(c5ccc6c(c5)C(=O)N(C5CCC(=O)NC5=O)C6=O)CC4)CC3)ccc2C1=O (stereo partly drawn) [Compound 325] showed an IC50 (MDA-MB-453 cells [1]; Homo sapiens) of over 2 µM.
In the case of CC1(C)[C@H](Oc2ccc(C#N)c(Cl)c2)C(C)(C)[C@@H]1N1Cc2nc(C#C[C@H]3C[C@H](N4CCN(c5cc6c(cc5F)C(=O)N(C5CCC(=O)NC5=O)C6=O)CC4)C3)ccc2C1=O (stereo partly drawn) [Compound 357], the IC50 (MDA-MB-453 cells [1]; Homo sapiens) is reported as at most 2 µM.
COc1cc(O[C@H]2C(C)(C)[C@H](N3Cc4nc(C#C[C@H]5CC[C@H](N6CCN(c7ccc8c(c7)C(=O)N(C7CCC(=O)NC7=O)C8=O)CC6)CC5)ccc4C3=O)C2(C)C)ccc1C#N (stereo partly drawn) [Compound 400] was tested, and the IC50 (MDA-MB-453 cells [1]; Homo sapiens) was at most 2 µM.
CNC(=O)c1ccc(N2C(=S)N(c3ccc(C#N)c(C(F)(F)F)c3)C(=O)C2(C)C)cc1F [HC-1119] showed an IC50 (HCC1937) of over 10 µM, an IC50 (MDA-MB-453 cells [1]) of over 2 µM and an IC50 (SUM159PT) of over 10 µM. The IC50 (MDA-MB-468) was over 10 µM, the IC50 (MDA-MB-453) was over 10 µM and the IC50 (MFM-223) was over 10 µM.
[2H]C([2H])([2H])NC(=O)c1ccc(N2C(=S)N(c3ccc(C#N)c(C(F)(F)F)c3)C(=O)C2(C)C)cc1F [HC-1119] was tested, and the “inhibitory effect on the proliferation of MDA-MB-453 cells” value (MDA-MB-453 cells [1]) was “weak inhibitory effect” and the “anti-proliferation activity in all five cell lines” value [6] was “failed to show anti-proliferation activity”.
